From BigSolDB 2.1

| Structure (SMILES) | solubility (mole fraction) (in 2-butanone, 298 K) | solubility (mole fraction) (in 2-butanone, 303 K) | solubility (mole fraction) (in 2-butanone, 308 K) | solubility (mole fraction) (in 2-butanone, 313 K) | solubility (mole fraction) (in 2-butanone, 318 K) | solubility (mole fraction) (in acetonitrile, 298 K) | solubility (mole fraction) (in acetonitrile, 303 K) | solubility (mole fraction) (in acetonitrile, 308 K) | solubility (mole fraction) (in acetonitrile, 313 K) | solubility (mole fraction) (in acetonitrile, 318 K) | solubility (mole fraction) (in isopropanol, 298 K) | solubility (mole fraction) (in isopropanol, 303 K) | solubility (mole fraction) (in isopropanol, 308 K) | solubility (mole fraction) (in isopropanol, 313 K) | solubility (mole fraction) (in isopropanol, 318 K) |
| --- | --- | --- | --- | --- | --- | --- | --- | --- | --- | --- | --- | --- | --- | --- | --- |
| c1ccc2cc3ccccc3cc2c1 | 0.00477 | 0.00591 | 0.00712 | 0.0085 | 0.0134 | 0.00066 | 0.00093 | 0.00135 | 0.00196 | 0.0027 | 0.00034 | 0.00044 | 0.00061 | 0.00081 | 0.00111 |
| O=C1c2ccccc2C(=O)c2ccccc21 | 0.00054 | 0.00062 | 0.00075 | 0.00087 | 0.001 | 0.00022 | 0.00026 | 0.00032 | 0.00039 | 0.00048 | 8e-05 | 0.0001 | 0.00012 | 0.00015 | 0.00018 |
